Where two headings read alike, the source gives them in different places.
Target: T1, human TRPM8 receptor (Homo sapiens, UniProt Q7Z2W7)
T1 construct: expressed in transfected cells; host or cells: HEK293, stably transfected, tetracycline-inducible expression
Assay: Assay on TRPM8 modulators: Ca2+-sensitive dye (Fluo-4) fluorescence in HEK293-TRPM8 test cells
Assay type: cell-based
Set-up: relative TRPM8 activation: concentration or dose not given beside the values
Settings: for relative TRPM8 activation: HEK293 cells recombinantly expressing human TRPM8; for EC50: HEK293-TRPM8 cells
Text: The starting point for cloning the human TRPM8 receptor is an LnCaP cDNA bank. This is commercially available (e.g. BioChain, Hayward, USA) or can be produced from the andro gene-sensitive human prostate adenocarcinoma cell line LnCaP (e.g. ATCC, CRL1740 or ECACC, 891 1021 1) using standard kits.
The coding TRPM8 sequence (see e.g. http://www. ncbi.nlm.nih.gov/entrez/viewer.fcgi?db=nuccore&id=109689694) can be PCR-amplified and cloned using standard methods. The human TRPM8 gene isolated in this way was used to produce the plasmid plnd_M8. Alternatively, the TRPM8 gene can also be produced synthetically.
A stably transfected HEK293 cell line was produced as a test cell system using human TRPM8 DNA. Preference was given to HEK293, which offers the possibility of inducing TRPM8 expression using tetracycline via the plasmid introduced.
A test similar to the test already described in the literature by Behrendt H. J. et al, Br. J. Pharmacol. 141, 2004, 737-745, is performed. The agonization or antagonization of the receptor can be quantified using a Ca^2+-sensitive dye (e.g. FURA, Fluo-4 etc.). Agonists alone cause an increase in the Ca^2+ signal; antagonists cause a reduction in the Ca^2+ signal in the presence of e.g. menthol (detected in each case using the Fluo-4 dye, which has different fluorescence properties due to Ca^2+ ions).
First, a fresh culture of transformed HEK cells is prepared in cell culture flasks in the usual way. The HEK293-TRPM8 test cells are detached from the cell culture flasks using trypsin and 40,000 cells/well are seeded with 100 μl medium in 96-well plates (Greiner #655948 poly-D-lysine-coated). To induce the TRPM8 receptor, tetracycline is added to the growth medium (DMEM/HG, 10% FCS tetracycline-free, 4 mM L-glutamine, 15 μg/ml blasticidin, 100 μg/ml hygromycin B, 1 μg/ml tetracycline).
On the following day, the cells are loaded with Fluo-4AM dye and the test is performed. Proceed as follows: Addition of 100 μl/well staining solution Ca-4 kit (RB 141, Molecular Devices) to each 100 μl medium (DMEM/HG, 10% FCS tetracycline-free, 4 mM L-glutamine, 15 μg/ml blasticidin, 100 μg/ml hygromycin B, 1 μg/ml tetracycline).
Incubation in incubator, 30 minutes/37° C./5% CO2, 30 minutes/RT.
Preparation of the test substances (different concentrations in 200 μl HBSS buffer), as well as positive controls (different concentrations of menthol, icilin or lonomycin in 200 μl HBSS buffer) and negative controls (only 200 μl HBSS buffer) Addition of the test substances in quantities of 50 μl/well and measurement of the fluorescence change (e.g. in the assay device FLIPR, Molecular Devices or NovoStar, BMG) at 485 nm excitation, 520 nm emission, and evaluation of the potency of the different substances/concentrations and determination of the ECG. e.g. in the FLIPR assay device, Molecular Devices or NovoStar, BMG) at 485 nm excitation, 520 nm emission, and evaluation of the potency of the various substances/concentrations and determination of the EC50 values.
The test substances are used in triplicates in concentrations of 0.1-200 μM in the assay. Normally, the compounds are kept ready in DMSO solutions and diluted down to a maximum DMSO concentration of 2% for the assay.
The activity of the active substances in relation to activation of the TRPM8 channel is determined using the assay described. This is done in a concentration-dependent manner. For each active substance, 6 to 10 concentrations are measured as standard. A mathematical method (4-parameter or 5-parameter logistic curve fitting) can be used to determine the EC50 value as the inflection point of the sigmoidal curve from the activity values determined. These are standard biochemical methods that are familiar to experts.

[1] = TRPM8 activation, 6 to 10 concentrations, logistic curve fitting, read-out: EC50 value

T1 sequence (Q7Z2W7 whole entry): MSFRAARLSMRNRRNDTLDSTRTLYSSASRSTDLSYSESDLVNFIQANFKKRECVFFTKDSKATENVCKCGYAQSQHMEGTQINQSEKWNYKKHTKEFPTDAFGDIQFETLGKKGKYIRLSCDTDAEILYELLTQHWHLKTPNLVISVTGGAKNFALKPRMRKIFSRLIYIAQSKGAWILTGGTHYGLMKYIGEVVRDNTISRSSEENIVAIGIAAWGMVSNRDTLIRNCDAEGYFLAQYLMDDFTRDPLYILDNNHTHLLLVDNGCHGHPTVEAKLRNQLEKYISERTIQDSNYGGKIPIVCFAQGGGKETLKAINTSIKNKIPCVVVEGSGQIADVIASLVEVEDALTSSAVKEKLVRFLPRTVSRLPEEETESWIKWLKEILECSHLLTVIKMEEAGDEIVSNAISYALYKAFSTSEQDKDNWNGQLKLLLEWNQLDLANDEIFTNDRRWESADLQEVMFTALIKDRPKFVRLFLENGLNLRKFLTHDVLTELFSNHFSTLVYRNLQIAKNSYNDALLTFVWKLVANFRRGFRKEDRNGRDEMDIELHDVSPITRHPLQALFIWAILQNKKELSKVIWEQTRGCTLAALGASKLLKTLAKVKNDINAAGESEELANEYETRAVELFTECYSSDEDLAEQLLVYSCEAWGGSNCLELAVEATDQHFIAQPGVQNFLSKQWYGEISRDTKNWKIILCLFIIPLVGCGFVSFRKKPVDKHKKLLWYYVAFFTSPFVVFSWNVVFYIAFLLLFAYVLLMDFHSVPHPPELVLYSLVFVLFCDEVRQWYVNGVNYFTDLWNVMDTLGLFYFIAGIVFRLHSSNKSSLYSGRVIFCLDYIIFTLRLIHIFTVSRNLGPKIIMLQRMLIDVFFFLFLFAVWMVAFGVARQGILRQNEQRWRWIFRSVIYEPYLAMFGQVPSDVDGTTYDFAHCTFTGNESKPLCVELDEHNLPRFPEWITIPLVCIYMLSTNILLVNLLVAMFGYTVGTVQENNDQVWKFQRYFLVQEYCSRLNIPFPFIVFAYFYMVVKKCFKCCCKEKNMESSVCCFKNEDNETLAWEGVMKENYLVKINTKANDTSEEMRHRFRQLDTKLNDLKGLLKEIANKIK

In the case of CCC(=O)CSc1nc(-c2ccccc2)c(-c2ccccc2)o1 [Compound A-61, 1-(4,5-diphenyloxazol-2-yl)sulfanylbutan-2-one], the “relative TRPM8 activation” value is reported as 0%.
In the case of CSc1nnc(-c2ccccc2)c(-c2ccccc2)n1 [Compound B-64, 3-methylsulfanyl-5,6-diphenyl-1,2,4-triazine], the “relative TRPM8 activation” value is reported as −3%.
CC1CCCCC1NC(=O)CSc1nc(-c2ccccc2)c(-c2ccccc2)o1 (stereo not shown) [Compound A-42, 2-(4,5-diphenyloxazol-2-yl)sulfanyl-N-(2-methylcyclohexyl) acetamide] was tested, and the “relative TRPM8 activation” value was 4%.
In the case of CN(C)C(=O)CCc1nc(-c2ccccc2)c(-c2ccccc2)o1 [Compound A-34, 3-(4,5-diphenyloxazol-2-yl)-N,N-dimethyl-propanamide], the “relative TRPM8 activation” value is reported as 16%.
With CC(=O)OCCSc1nc(-c2ccccc2)c(-c2ccccc2)o1 [Compound A-57, 2-(4,5-diphenyloxazol-2-yl)sulfanylethyl acetate] the “relative TRPM8 activation” value was 1%.
COc1ccc(-c2nc(SCC(=O)NC3CC3)oc2-c2ccc(OC)cc2)cc1 [Compound A-58, 2-[4,5-bis(4-methoxyphenyl)oxazol-2-yl]sulfanyl-N-cyclopropyl-acetamide] was tested, and the “relative TRPM8 activation” value was 1%.
In the case of CC(CO)NC(=O)CSc1nc(-c2ccccc2)c(-c2ccccc2)o1 (stereo not shown) [Compound A-26, 2-(4,5-diphenyloxazol-2-yl)sulfanyl-N-(2-hydroxy-1-methyl-ethyl)acetamide], the “relative TRPM8 activation” value is reported as 51%.
For CC(C)C(=O)CSc1nnc(-c2ccccc2)c(-c2ccccc2)n1 [Compound B-25, 1-[(5,6-diphenyl-1,2,4-triazin-3-yl)sulfanyl]-3-methyl-butan-2-one], the “relative TRPM8 activation” value was 57%.
For CC(C)C(C)NC(=O)CSc1nc(-c2ccccc2)c(-c2ccccc2)o1 (stereo not shown) [Compound A-46, N-(1,2-dimethylpropyl)-2-(4,5-diphenyloxazol-2-yl)sulfanyl-acetamide], the “relative TRPM8 activation” value was 2%.
In the case of CCNC(=O)CSc1nc(-c2ccccc2)c(-c2ccccc2)o1 [Compound A-17, 2-(4,5-diphenyloxazol-2-yl)sulfanyl-N-ethyl-acetamide], the EC50 (Table 6, read-out: TRPM8 EC50) is reported as 5850 nM and the EC50 (Table 8, read-out: TRPM8 EC50) is reported as 5850 nM.
In the case of CN(C)c1nc(-c2ccccc2)c(-c2ccccc2)o1 [Compound A-71, N,N-dimethyl-4,5-diphenyl-oxazol-2-amine], the “relative TRPM8 activation” value is reported as −3%.
CN(C)C(=O)CSc1nnc(-c2ccccc2)c(-c2ccccc2)n1 [Compound B-27, 2-[(5,6-diphenyl-1,2,4-triazin-3-yl)sulfanyl]-N,N-dimethyl-acetamide] was tested, and the “relative TRPM8 activation” value was 56%.
OCCNc1nnc(-c2ccccc2)c(-c2ccccc2)n1 [Compound B-58, 2-[(5,6-diphenyl-1,2,4-triazin-3-yl)amino]ethanol] was tested, and the “relative TRPM8 activation” value was 1%.
For CCC(Sc1nnc(-c2ccccc2)c(-c2ccccc2)n1)C(=O)N(C)C (stereo not shown) [Compound B-05, 2-[(5,6-diphenyl-1,2,4-triazin-3-yl)sulfanyl]-N,N-dimethyl-butanamide], the EC50 [1] was at most 1000 nM, the EC50 (Table 5, read-out: TRPM8 EC50) was 100 nM and the EC50 (Table 7, read-out: TRPM8 EC50) was 100 nM.
With COCCNc1nnc(-c2ccccc2)c(-c2ccccc2)n1 [Compound B-55, N-(2-methoxyethyl)-5,6-diphenyl-1,2,4-triazin-3-amine] the “relative TRPM8 activation” value was 2%.
For CNC(=O)C(C)S(=O)(=O)c1nc(-c2ccccc2)c(-c2ccccc2)o1 (stereo not shown) [Compound A-28, 2-(4,5-diphenyloxazol-2-yl)sulfonyl-N-methyl-propanamide], the “relative TRPM8 activation” value was 40%.
CNC(=O)CSc1nc(-c2ccccc2)c(-c2ccccc2)o1 [Compound A-15, 2-(4,5-diphenyloxazol-2-yl)sulfanyl-N-methyl-acetamide] was tested, and the EC50 (Table 6, read-out: TRPM8 EC50) was 7140 nM and the EC50 (Table 8, read-out: TRPM8 EC50) was 7140 nM.
CNC(=O)C(C)Sc1nc(-c2ccccc2)c(-c2ccccc2)o1 (stereo not shown) [Compound A-03, 2-(4,5-diphenyloxazol-2-yl)sulfanylpropa noyl-methyl-ammonium; chloride] showed an EC50 [1] of at most 1000 nM, an EC50 (Table 6, read-out: TRPM8 EC50) of 10 nM and an EC50 (Table 8, read-out: TRPM8 EC50) of 10 nM.
In the case of CC(C)CNC(=O)C(C)Sc1nc(-c2ccccc2)c(-c2ccccc2)o1 (stereo not shown) [Compound A-37, 2-(4,5-diphenyloxazol-2-yl)sulfanyl-N-isobutyl-propanamide], the “relative TRPM8 activation” value is reported as 7%.
In the case of CNC(=O)C(C)Sc1nc(-c2ccccc2)c(-c2ccccc2)o1 (stereo not shown) [Compound A-01, 3-carboxy-3,5-dihydroxy-5-OXO-pentanoate;2-(4,5-diphenyloxazol-2-yl)sulfanylpropa noyl-methyl-ammonium], the EC50 (Table 6, read-out: TRPM8 EC50) is reported as 10 nM and the EC50 (Table 8, read-out: TRPM8 EC50) is reported as 10 nM.
With CC(C)CNC(=O)CSc1nc(-c2ccccc2)c(-c2ccccc2)o1 [Compound A-65, 2-(4,5-diphenyloxazol-2-yl)sulfanyl-N-isobutyl-acetamide] the “relative TRPM8 activation” value was −1%.
In the case of CCC(Sc1nnc(-c2ccc(OC)c(OC)c2)c(-c2ccc(OC)c(OC)c2)n1)C(=O)NC1CCCC1 (stereo not shown) [Compound B-61, 2-[[5,6-bis(3,4-dimethoxyphenyl)-1,2,4-triazin-3-yl]sulfanyl]-N-cyclopentyl-butanamide], the “relative TRPM8 activation” value is reported as 1%.
In the case of Cc1ccc(-c2nnc(SCC(=O)NC3CC3)nc2-c2ccc(C)cc2)cc1 [Compound B-62, 2-[[5,6-bis(p-tolyl)-1,2,4-triazin-3-yl]sulfanyl]-N-cyclopropyl-acetamide], the “relative TRPM8 activation” value is reported as 0%.
For CSCC(=O)N1CCCCC1c1nc(-c2ccccc2)c(-c2ccccc2)o1 (stereo not shown) [Compound A-21, 1-[2-(4,5-diphenyloxazol-2-yl)-1-piperidyl]-2-methylsulfanyl-ethanone], the “relative TRPM8 activation” value was 70%.
c1ccc(CSc2nc(-c3ccccc3)c(-c3ccccc3)o2)cc1 [Compound A-54, 2-benzylsulfanyl-4,5-diphenyl-oxazole] was tested, and the “relative TRPM8 activation” value was 1%.
With CNC(=O)C(C)Sc1nnc(-c2ccc(OC)cc2)c(-c2ccc(OC)cc2)n1 (stereo not shown) [Compound B-40, 2-[[5,6-bis(4-methoxyphenyl)-1,2,4-triazin-3-yl]sulfanyl]-N-methyl-propanamide] the “relative TRPM8 activation” value was 9%.
CNCCc1nc(-c2ccccc2)c(-c2ccccc2)o1.Cl [Compound A-62, 2-(4,5-diphenyloxazol-2-yl)ethyl-methyl-ammonium; chloride] was tested, and the “relative TRPM8 activation” value was 0%.
Cc1ccc(-c2nnc(SC(C)C(=O)N3CCCC3)nc2-c2ccc(C)cc2)cc1 (stereo not shown) [Compound B-38, 2-[[5,6-bis(p-tolyl)-1,2,4-triazin-3-yl]sulfanyl]-1-pyrrolidin-1-yl-propan-1-one] was tested, and the “relative TRPM8 activation” value was 11%.
In the case of CCSc1nnc(-c2ccccc2)c(-c2ccccc2)n1 [Compound B-37, 3-ethylsulfanyl-5,6-diphenyl-1,2,4-triazine], the “relative TRPM8 activation” value is reported as 13%.
In the case of OCCSc1nnc(-c2ccccc2)c(-c2ccccc2)n1 [Compound B-46, 2-[(5,6-diphenyl-1,2,4-triazin-3-yl)sulfanyl]ethanol], the “relative TRPM8 activation” value is reported as 5%.

Reference: patent publication US20250163006A1, “New Coolants, and Preparations Containing Same” (Symrise AG, priority 2022, published 2025)
